Laboratory results as given in US11040976B2, “Substrate selective inhibitors of insulin-degrading enzyme (IDE) and uses thereof” (President and Fellows of Harvard College, priority 2015, dated 2021).

Tests used:
human IDE Ala479Leu = target: T1, human IDE Ala479Leu (Homo sapiens, UniProt P14735, A479L); assay: Activity assay of mutant human IDE variant A479L with IDE inhibitors; format: biochemical
T1 construct: N-His6-tagged human IDE42-1019 construct was introduced in the expression plasmid pTrcHis-A; His6 (N); made in house; host or cells: E. coli Rosetta 2 (DE3) pLysS
T1 sequence (P14735 42-1019 A479L): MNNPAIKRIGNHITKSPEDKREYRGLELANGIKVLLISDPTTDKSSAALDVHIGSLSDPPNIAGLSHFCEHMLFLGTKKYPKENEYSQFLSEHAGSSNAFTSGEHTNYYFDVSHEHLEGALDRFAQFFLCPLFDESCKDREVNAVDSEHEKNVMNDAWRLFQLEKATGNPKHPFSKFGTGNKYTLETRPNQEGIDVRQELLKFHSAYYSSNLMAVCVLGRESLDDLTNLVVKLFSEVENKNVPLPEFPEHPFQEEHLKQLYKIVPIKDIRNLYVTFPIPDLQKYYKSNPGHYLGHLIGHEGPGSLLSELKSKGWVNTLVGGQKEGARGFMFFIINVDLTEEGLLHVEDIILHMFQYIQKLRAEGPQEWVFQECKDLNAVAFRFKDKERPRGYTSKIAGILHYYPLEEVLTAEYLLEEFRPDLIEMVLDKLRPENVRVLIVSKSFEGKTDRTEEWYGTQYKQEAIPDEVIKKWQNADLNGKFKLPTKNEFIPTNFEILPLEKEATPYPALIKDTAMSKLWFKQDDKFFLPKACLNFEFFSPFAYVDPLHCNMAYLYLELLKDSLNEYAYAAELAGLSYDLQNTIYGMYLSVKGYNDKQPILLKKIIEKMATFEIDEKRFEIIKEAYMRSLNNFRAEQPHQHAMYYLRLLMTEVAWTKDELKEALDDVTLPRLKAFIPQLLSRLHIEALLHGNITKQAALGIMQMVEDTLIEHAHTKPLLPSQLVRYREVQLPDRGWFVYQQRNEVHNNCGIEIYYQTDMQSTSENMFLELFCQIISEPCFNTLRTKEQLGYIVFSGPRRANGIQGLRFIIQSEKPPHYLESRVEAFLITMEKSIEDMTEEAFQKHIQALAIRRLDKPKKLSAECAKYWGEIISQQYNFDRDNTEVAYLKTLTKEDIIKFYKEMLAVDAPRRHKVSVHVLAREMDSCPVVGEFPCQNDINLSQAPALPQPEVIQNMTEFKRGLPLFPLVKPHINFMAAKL
Excerpt: (§1) N-His6-tagged human IDE42-1019 construct was introduced in the expression plasmid pTrcHis-A (Invitrogen) using primers for uracil-specific excision reactions (USER) by Taq (NEB) and Pfu polymerases (PfuTurbo CX®, Agilent), as described in more detail in Maianti et al. (Nature (2014), 511, 94-98), which is incorporated by reference herein. The IDE gene was amplified with the primers 5′-[…]-dU-[…] (SEQ ID NO: 26) and 5′-[…] G-dU-[…] (SEQ ID NO: 27) (underlined sequences represent overhangs, and italics highlight the PCR priming sequence). Similarly, the pTrcHis-A vector was amplified for USER cloning with the primers 5′-[…]-dU-[…] (SEQ ID NO: 28) and 5′-[…]-dU-[…] (SEQ ID NO: 29). Mutant IDE constructs were generated by amplifying the full vector construct with USER cloning primers introducing a mutant overhang (see Table E6).
(§2) Recombinant His6-tagged proteins were purified by Ni(II)-affinity chromatography (IMAC sepharose beads, GE Healthcare®) according to the manufacturer's instructions. The cell pellets were re-suspended in pH 8.0 buffer containing 50 mM phosphate, 300 mM NaCl, 10 mM imidazole, 1% Triton X-100 and 1 mM tris(2-carboxyethyl)phosphine hydrochloride (TCEP), and were lysed by probe sonication for 4 minutes at <4° C., followed by clearing of cell debris by centrifugation at 10,000 g for 25 minutes at 4° C. […]

[1] = system: human IDE Val360Gln and Tyr314Phe; assay: Activity assay of mutant human IDE variants Val360Gln and Tyr314Phe with IDE inhibitors; format: biochemical
Excerpt: as §1, §2

## NCCCC[C@@H]1NC(=O)/C=C/C(=O)N[C@H](C(N)=O)CCCCNC(=O)[C@@H](Cc2ccc(C(=O)c3ccccc3)cc2)NC(=O)[C@H](CC2CCCCC2)NC1=O [6bK, reference compound]
Human IDE Ala479Leu
  effect of Ala479Leu mutation on inhibition of IDE: blocks 6bK from inhibiting IDE

## Cc1cccc(-c2ccc([C@@H]3[C@@H](CO)N4CCCCN(S(=O)(=O)c5ccccc5C)C[C@@H]34)cc2)c1 [compound 297]
[1]
  effect of variants Val360Gln and Tyr314Phe on potency: minor impacts on potency
